Series [1] has as its system Jeko1 or Mino lymphoma cells. The experiment in a line: Apoptosis by flow cytometry, statements for the cell lines together. Type of series: cell-based, human. The settings on record: 4 days; for apoptosis / percentage of apoptotic cells: Jeko1 or Mino, relative to control cells (DMSO), Compound A or B 2-3 μM, GDC-0941 0.075-2 μM, CAL-101 2 μM; for cellular apoptosis: Compound A or B plus a PI3Ki, lymphoma cells. How it is done:
Jeko1 (FIG. 4A and FIG. 4B) or Mino (FIG. 4C) lymphoma cells were exposed to drug for 4 days, and apoptosis was assessed by flow cytometry by measuring Annexin V binding and cellular permeability to propidium iodide. The relative fraction of cells that were live, in early apoptosis, in late apoptosis, or dead was then estimated. The cells were treated with DMSO, Compound A or B (2-3 μM), GDC-0941 (0.075-2 μM), or the combination of Compound A or B (2-3 μM) with GDC-0941 (0.075-2 μM) on the induction of apoptosis. Alternatively, cells were treated with DMSO, Compound A or B (2 μM), CAL-101 (2 μM), or the combination of Compound A or B (2 μM) with CAL-101 (2 μM) before measuring induction of apoptosis.
For orientation: In flow cytometry, cells or beads pass a laser one at a time.

The conditions of series [2]: relative to start of dosing; GDC-0941 100 mg/kg PO QD, Compound A 30 mg/kg IP QD; five days per week for 3 cycles.
Protocol: Percent body weight change was determined relative to the start of dosing, and the mean change±SD was plotted. All treatments were dosed five days per week for 3 cycles.
Series [3] concerns Mino, Jeko1, Granta-519, U2932 and SUDHL16 cells. Put plainly: MTS cell viability, dose-matrix combination of HDAC6 inhibitor and PI3K inhibitor (Fa-CI, Chou-Talalay). Format: cell-based, human. To be noted: HDAC6 inhibitor in combination with a PI3K inhibitor (GDC-0941 or GS-1101/CAL-101), 48 hr. As to the method: Human lymphoma cell lines were selected that represented the most common subtypes of NHL. For Mantle Cell Lymphoma (MCL) Mino, Jeko1, and Granta-519 cells were utilized, while U2932 and SUDHL16 cells represented the activated B cell (ABC) and germinal center (GC) subtypes of diffuse large B cell lymphoma (DLBCL), respectively. Briefly, cells were seeded in 384-well plates and treated in quadruplicate in a dose-matrix format with an HDAC6 inhibitor (Compound A, Compound B, or Compound C) in combination with a PI3K inhibitor (GDC-0941 or GS-1101/CAL-101). After incubating these cells for 48 hr, total cell viability was assessed via an MTS assay (Aqueous One, Promega). The fraction affected (Fa) was subsequently determined for each dose combination and the combination index (CI) was assessed using the method of Chou-Talay.

In series [4] the test system is Jeko1, Mino or Granta-519 lymphoma cells. The experiment in a line: Cell cycle distribution by flow cytometry, statements for all cell lines together. Format: cell-based, human. The settings on record: Compound A or B 2 μM and/or PI3K inhibitor, 4 days. As to the method:
The relative fraction of cells in each stage of the cell cycle (G0/G1, S, and G2/M), as well as the fraction of dead cells (Sub G1) was then estimated. Cells were treated with DMSO, Compound A or B (2 μM), GDC-0941 (0.075-0.5 μM), or the combination of Compound A or B (2 μM) with GDC-0941 (0.075-0.5 μM) on cell cycle inhibition. Alternatively, cells were treated with DMSO, Compound A or B (2 μM), CAL-101 (1-2 μM), or the combination of Compound A or B (2 μM) with CAL-101 (1-2 μM) before measuring effects on cell cycle inhibition.

These results are taken from patent publication US20150105383A1, “HDAC Inhibitors, Alone Or In Combination With PI3K Inhibitors, For Treating Non-Hodgkin's Lymphoma” (Acetylon Pharmaceuticals, Inc., priority 2013, published 2015).

“Also recorded” adds a separate entry of the source.

As for `CS(=O)(=O)N1CCN(Cc2cc3nc(-c4cccc5[nH]ncc45)nc(N4CCOCC4)c3s2)CC1` [GDC-0941, 2-(1H-indazol-4-yl)-6-(4-methanesulfonyl-piperazin-1-ylmehtyl)-4-morpholin-4-yl-thienol[3,2-d]pyrimidine], in series [1], the “apoptosis / percentage of apoptotic cells” value (from here on “apoptosis / percentage”) is given as “did not result in increased cell death”. For the same compound, in series [2], the body weight change entry was “complete recovery after minimal body weight loss; also recorded: low level body weight loss was recovered by the end of the treatment period”.

For `O=C(NO)c1cnc(NC2(c3cccc(F)c3)CCCCC2)nc1` [Compound C, 2-((1-(3-fluorophenyl)cyclohexyl)amino)-N-hydroxypyrimidine-5-carboxamide], the “synergy in decreasing lymphoma cell viability” value in series [3] is given as “synergistic decreases in lymphoma cell viability”.

Turning to `O=C(CCCCCCNC(=O)c1cnc(N(c2ccccc2)c2ccccc2)nc1)NO` [Compound A, 2-(diphenylamino)-N-(7-(hydroxyamino)-7-oxoheptyl) pyrimidine-5-carboxamide], the “synergy in decreasing lymphoma cell viability” value in series [3] is listed as “synergistic decreases in lymphoma cell viability”. Besides, the cell cycle progression entry in series [4] was “decreased cell cycle progression”. Besides, in series [1], the cellular apoptosis result is recorded as “synergistic increases in cellular apoptosis” and the “apoptosis / percentage” value was “small increase in apoptosis relative to control cells”.

For `O=C(CCCCCCNC(=O)c1cnc(N(c2ccccc2)c2ccccc2Cl)nc1)NO` [Compound B, 2-((2-chlorophenyl)(phenyl)amino)-N-(7-(hydroxyamino)-7-oxoheptyl)pyrimidine-5-carboxamide], in series [3], the “synergy in decreasing lymphoma cell viability” value is reported as “synergistic decreases in lymphoma cell viability”. For the same compound, the cell cycle progression result in series [4] was “decreased cell cycle progression”. Also, in series [1], the cellular apoptosis entry is listed as “synergistic increases in cellular apoptosis” and the “apoptosis / percentage” value is reported as “small increase in apoptosis relative to control cells”.
